Test results published in ChEMBL document CHEMBL3507680, “University of Dundee, Gates Library screen for HepG2 cell viability”.
Values joined by “and” are separate entries in the source; they are usually repeats but may differ in a detail not shown here. Equal values may be shown once.

How the values were obtained:
[1] = Human HepG2 cell viability assay in 384 well format; type: toxicity, cell-based; design: dose 125 nL, time 70.5 hour; concentration not given beside the values; conditions: HepG2 cells, read-out: Inhibition
[2] = Human HepG2 cell viability dose-response assay; type: toxicity, cell-based

Row | Compound | cytotoxicity at 70.5 h [1] [%] | BOTTOM [2] | HILLSLOPE [2] | TOP [2] | pXC50 [2]
1 | C/N=C1/c2cc3cc(OC)ccc3n2CCN1Cc1ccccc1.Cl | 61.3 | -4.849 and -8.854 | 2.411 and 1.684 | 87.09 and 100 | 5.148 and 5.086
2 | O=C(Nc1nccs1)c1csc(NC2CCCC2)n1 | 62 | -10.16 and -7.056 | 0.9548 and 1.411 | 100 | 4.822 and 4.869
3 | CCCc1cc(=O)[nH]c(-n2nc(C3CC3)cc2N)n1 | 65.9 | 0 | 0 | 0 | < 4.53
4 | c1ccc(OCC2CC3(CCN(CC4CCOCC4)CC3)CO2)nc1 (stereo not given) | 62.9 | 0 | 0 | 0 | < 4.53
5 | CCn1cc(CN(C)S(=O)(=O)c2ccc(Cl)cc2)cn1 | 108 | 0 | 0 | 0 | < 4.53
6 | c1ccc(CCN2CCCC2c2cccc(Nc3nccs3)n2)cc1 (stereo not given) | 70.3 | -11.18 and -9.985 | 1.416 and 1.359 | 100 | 5.661 and 5.625
7 | Cc1cnc(Nc2cccc(C3CCCN3Cc3cn(C)nc3C)n2)s1 (stereo not given) | 76 | -7.108 and -9.894 | 1.821 and 1.15 | 87.64 and 100 | 5.777 and 5.662
8 | Oc1cc(C2CCCN(Cc3cccs3)C2)nc(-c2ccccn2)n1 (stereo not given) | 60.4 | -7.306 and -6.343 | 1.489 and 1.356 | 100 | 4.83 and 4.808
9 | Cn1nccc1CN1CCOC(c2cccc(Nc3ccccn3)n2)C1 (stereo not given) | 84.1 | – | 6.527 and 3.177 | 100.3 and 104.2 | 5.026 and 5.036
10 | Cc1ccccc1CN1CCCC1c1cccc(Nc2nccs2)n1 (stereo not given) | 70.5 | -34.71 and -42.55 | 0.815 and 0.7597 | 100 | 6.34 and 6.398
11 | Oc1cc(C2CCCCN2Cc2cccs2)nc(-c2ccccn2)n1 (stereo not given) | 64.3 | -3.23 and -7.213 | 1.278 and 1.267 | 100 | 5.076 and 5.09
12 | CNc1cc(C2CN(Cc3scnc3C)CCO2)nc(C)n1 (stereo not given) | 98.7 | – | 1.929 and 1.812 | 107.3 and 109.8 | 4.988 and 5.003
13 | CCc1ncc2c(n1)CN(Cc1ncc(C(C)(C)C)o1)CC2 | 60.9 | 0 | 0 | 0 | < 4.53
14 | CN(CCC(F)(F)F)C(=O)C1CSCN1C(=O)C(C)(C)C (stereo not given) | 100 | 0 | 0 | 0 | < 4.53
15 | NC(CC1CCCC1)c1ccc(Oc2ccccc2)cc1 (stereo not given) | 99 | -5.453 and -5.719 | 5.268 and 5.002 | 102.6 and 103.1 | 5.226 and 5.224
16 | O=C(CN1CCc2sccc2C1)Nc1ccnc2ccnn12 | 74.2 | -24.28 and -16.58 | 0.9799 and 1.026 | 100 | 5.87 and 5.888
17 | CNc1nc(C)cc(NCc2cc(C)cc3c(C)c(C)[nH]c23)n1 | 98.8 | -7.457 and -8.772 | 3.23 and 3.681 | 100 and 99.18 | 5.482 and 5.451
18 | CC(C)(C)c1nccc(C2(c3ccccc3Cl)CCNCC2)n1 | 78.4 | 9.625 and 4.047 | 4.667 and 5.549 | 104.8 and 103.4 | 5.031 and 5.028
19 | N#Cc1ccc(NCCNc2ccc(C(F)(F)F)cn2)nc1 | 101 | -5.895 and -10.21 | 4.246 and 4.413 | 101.3 and 101.1 | 5.913 and 5.918
20 | CC(C)Cc1ccc(S(=O)(=O)Nc2ccc(=O)n(C)c2)cc1 | 71.6 | 0 | 0 | 0 | < 4.53
21 | CC(=O)c1cccc(OCC(=O)NS(=O)(=O)c2ccc(C)s2)c1 | 28.6 | – | – | – | –

Row | Compound | cytotoxicity at 70.5 h [1] [%] | BOTTOM [2] | HILLSLOPE [2] | TOP [2] | pXC50 [2]
22 | CCOC(=O)C1CCN(Cc2csc(C(C)(C)C)n2)CC1 | -2.2 | – | – | – | –
23 | COc1cccc2cc(CNC(C)(C)C(=O)N3CCC(O)CC3)oc12 | 14.1 | – | – | – | –
24 | CCc1n[nH]c(C2CN(C(=O)c3cnns3)CCO2)n1 (stereo not given) | 2.09 | – | – | – | –
25 | c1ccc(-c2nnc(CNCCn3cccn3)o2)cc1 | -1.94 | – | – | – | –
26 | Cc1nc(C)n(CC2CCCN2CCCOc2ccc(F)cc2)n1 (stereo not given) | 6.79 | – | – | – | –
27 | CNS(=O)(=O)CCCN1CCCC1c1cc(C)on1 (stereo not given) | 1.72 | – | – | – | –
28 | O=C(CCc1cccnc1)N1CCCC(n2cncn2)C1 (stereo not given) | -2.85 | – | – | – | –
29 | Cc1cnn(CC2CN(c3ncnc4ccccc34)CCO2)c1 (stereo not given) | 31.7 | – | – | – | –
30 | COCc1ccccc1C(=O)N1CCCC(n2nc(C)cc2C)C1 (stereo not given) | 24.9 | – | – | – | –
31 | O=C(CCCc1ncc(-c2ccccc2)o1)N1CCN(CCO)CC1 | -7.53 | – | – | – | –
32 | Cc1cc(C2CCCN(CCCS(=O)(=O)c3ccccc3)C2)n[nH]1 (stereo not given) | -14 | – | – | – | –
33 | O=C(c1cccc2[nH]ncc12)N1CCCC1c1noc(C2CC2)n1 (stereo not given) | -18.3 | – | – | – | –
34 | Cc1nccn1CC1CCCN1S(=O)(=O)Cc1ccccc1F (stereo not given) | -7.26 | – | – | – | –
35 | Cc1nn(C)c(Cl)c1C(=O)NCC(c1ccsc1)N(C)C (stereo not given) | -21.3 | – | – | – | –
36 | CCC(CC)C(CNC(=O)Nc1ccc(C)cc1)N1CCOCC1 (stereo not given) | -15.7 | – | – | – | –
37 | Cc1ccc(CNC(=O)NCc2csc(C)n2)cn1 | -21.2 | – | – | – | –
38 | Cc1ccc(CNC(=O)CCSCc2csc(C)n2)cn1 | -11.2 | – | – | – | –
39 | N#Cc1ccccc1N1CCCN(C(=O)CCn2cccn2)CC1 | -23 | – | – | – | –
40 | Cc1cc(CN2CCC(c3ccnn3CCO)CC2)no1 | -15.5 | – | – | – | –
41 | Cc1noc2ncc(C(=O)N3CCCC3c3ccncc3)cc12 (stereo not given) | 33.6 | – | – | – | –
42 | N#Cc1ccccc1N1CCCN(C(=O)CCc2nccs2)CC1 | -21.6 | – | – | – | –

Row | Compound | cytotoxicity at 70.5 h [1] [%] | BOTTOM [2] | HILLSLOPE [2] | TOP [2] | pXC50 [2]
43 | Cn1cc(CCNC(=O)NCc2nnc3n2CCC3)cn1 | -22.4 | – | – | – | –
44 | NC(=O)C1CCCN(C(=O)c2cnc3c(cnn3C3CCCC3)c2)C1 (stereo not given) | 33 | – | – | – | –
45 | OC(CN1CCN(Cc2nnc(C3CC3)o2)CC1)c1ccccc1 (stereo not given) | -20.3 | – | – | – | –
46 | Cc1cnn(CC2CCCN2CCc2nc3ccccc3c(=O)[nH]2)c1 (stereo not given) | 0.164 | – | – | – | –
47 | Cc1cnn(CC2CCCN2C(=O)Cc2n[nH]c3ccccc23)c1 (stereo not given) | -14.5 | – | – | – | –
48 | Cc1cccc(NC2CCN(C(=O)Nc3cc(C)on3)CC2)n1 | -14.3 | – | – | – | –
49 | CC(O)CN1CCN(C(=O)c2cccn2Cc2ccncc2)CC1 (stereo not given) | -16.4 | – | – | – | –
50 | CCC(CC)C(O)CNC(=O)Nc1cc(C)nn1C (stereo not given) | -17.8 | – | – | – | –
51 | Cc1cnn(CC2CCCCN2Cc2nc(N)c3ccccc3n2)c1 (stereo not given) | -6.17 | – | – | – | –
52 | Cc1cnn(CC2CCCN2C(=O)c2cccc(-n3cnnn3)c2)c1 (stereo not given) | -28.5 | – | – | – | –
53 | Cc1nccn1CC1CCCN1S(=O)(=O)Cc1ccccc1 (stereo not given) | -22.1 | – | – | – | –
54 | Fc1cccc(-n2ccc(CN3CCCCC3Cn3cncn3)n2)c1 (stereo not given) | -13.3 | – | – | – | –
55 | CN(Cc1nc(C2CC2)no1)C1CCCN(c2cccnn2)C1 (stereo not given) | -19.7 | – | – | – | –
56 | Cc1cnn(CC2CCCN2C(=O)c2cccc(CC#N)c2)c1 (stereo not given) | -22 | – | – | – | –
57 | Cl.Cn1ccnc1N1CCN(C(=O)Cc2ccc(F)cc2)CC1 | 75 | 0 | 0 | 0 | < 4.53
58 | COc1ccc(C)cc1CN1CCC(c2cc3ncccc3cn2)CC1.Cl | 105 | -3.004 and -4.306 | 10.96 and 6.205 | 101.8 and 102.1 | 5.072 and 5.187
59 | Cl.Cl.Clc1cccc(C[C@@H]2NCCC[C@@H]2Nc2ccccc2)c1 | 104 | -6.539 and -3.827 | 13.96 and 17.86 | 101.8 | 5.306 and 5.329
60 | O=C(O)C(F)(F)F.O=C1COC2(CCN(CC3CCC3)CC2)CN1c1cncnc1 | 61.5 | 0 | 0 | 0 | < 4.53
61 | Cc1c(C)c2c(c(C)c1O)CC[C@](C)(C(=O)O)O2 [(R)-TROLOX] | -0.808 | – | – | – | –
